From PMC11395333, “The Bifunctional Dimer Caffeine-Indan Attenuates α-Synuclein Misfolding, Neurodegeneration and Behavioral Deficits after Chronic Stimulation of Adenosine A1 Receptors” (International Journal of Molecular Sciences, 2024)

Experiments:
[1] = system: α-Syn; assay: Immunohistochemistry and Thioflavin-S staining of brain slices (α-Syn expression and aggregation); type: in vivo, rat
From the text: All animals were housed and treated humanely following the guidelines from the following governing bodies: National Research Council (US) Committee for the Update of the Guide for the Care and Use of Laboratory Animals (Washington DC, USA, 2011); Canadian Council on Animal Care (CCAC); and the University of Saskatchewan Animal Research Ethics Board (AREB), which approved our Animal Use Protocol (#20070090 and #20170079). The animals were housed in cages of two, with access to food pellets and water ad libitum. The four treatments of the Sprague-Dawley rats consisted of the following: 1. Control (0.1% DMSO in 0.9% saline); 2. CPA; 3. […] Drugs were dissolved at 3 mg/mL in DMSO, and each drug was administered to the animals by daily i.p. injections (3 mg/kg or 5 mg/kg body weight) for 7 consecutive days. […] Then, on days 8 and 9 following the final injections, the animals were subjected to several behavioral tests.
Anesthetized rats were transcardially perfused with 0.9% saline, and then fixed with 4% paraformaldehyde. The extracted brains were put in 30% cryoprotected sucrose solution for 48 h prior to slicing. The brains were initially frozen at −40 °C (BFS-30 mp controllers) and sliced with the help of a microtome (Leica SM2010 R Sliding controller). Coronal slices of 40 μm were then washed three times in 0.1 M phosphate-buffered saline followed by 1 h blocking at room temperature with blocking buffer. The buffer solution components have been previously described. The slices were then incubated overnight at 4 °C with the following primary antibodies: 1:200 mouse monoclonal to α-synuclein (Abcam Inc, Toronto, ON, Canada; Cat# ab280377) and 1:200 rabbit polyclonal to tyrosine hydroxylase (TH) (Millipore-Sigma, Oakville, ON, Canada; Cat# AB152). Subsequently, slices were then incubated for 1 h in the dark at room temperature with the following secondary antibodies (1:1000): AlexaFluor-555-conjugated anti-mouse (Cat# A-21127) and AlexaFluor-647-conjugated anti-rabbit (Cat# A-21244) purchased from Invitrogen (Thermo Fisher Scientific, Waltham, MA, USA). Slices were then treated with Thioflavin-S (see further details below). Lastly, the slices were incubated for 5 min at room temperature with DAPI (2 mg/mL) from Invitrogen (Thermo Fisher Scientific; Cat# R37606) and images were taken using a Zeiss LSM700 confocal microscope (Carl Zeiss Group, Toronto, ON, Canada) and analyzed with ImageJ (Open-Source Public Domain software, United States National Institute of Health (US NIH), Bethesda, MD, USA). Images of the hippocampal CA1 pyramidal layer and the SN pars compacta were obtained using the Zeiss Plan-Apochromat 63X/1.4 oil objective lens (Carl Zeiss Group, Toronto, ON, Canada). Images were acquired as Z-stack images of hippocampal or SN regions with 12–13 Z-stack images taken at 1 µm intervals near the middles of brain slices. Two Z-stack images were taken along the hippocampal CA1 or SN pars compacta region for each slice, and immunofluorescence signals were averaged using densitometry analysis.
Thioflavin-S (Thio-S) is a fluorescent marker (Sigma-Aldrich, Oakville, ON, Canada; Cat# T1892-25G) that detects α-Syn aggregates and amyloid plaques. Coronal slices of 40 μm were firstly treated with 0.3% KMnO4 for 4 min, followed by a 30 min incubation with 1 M phosphate buffered saline at 4 °C. These slices were then stained with 0.05% Thioflavin-S in 50% ethanol in the dark for 8 min, rinsed with 80% ethanol twice, followed by three rinses with ultra-pure water for 30 s. Finally, the slices were incubated again with 1 M phosphate buffered saline for 30 min at 4 °C before starting the DAPI stain. The FITC filter (488 nm laser line) was used to image Thioflavin-S using a Zeiss LSM700 confocal microscope (Carl Zeiss Group, Canada) and images were analyzed with ImageJ (Public Domain).

[2] = system: α-Syn; design: method as in PMID 27673434; settings: isothermal titration calorimetry; cited from earlier work
[3] = system: one- and two-copied α-Syn-Green Fluorescent Protein (GFP) yeast strain; design: method as in PMID 27673434; settings: cited from earlier work
[4] = system: male Sprague-Dawley rats; assay: Open field test after 7-day chronic i.p. CPA injection; type: in vivo, rat
From the text: All animals were housed and treated humanely following the guidelines from the following governing bodies: National Research Council (US) Committee for the Update of the Guide for the Care and Use of Laboratory Animals (Washington DC, USA, 2011); Canadian Council on Animal Care (CCAC); and the University of Saskatchewan Animal Research Ethics Board (AREB), which approved our Animal Use Protocol (#20070090 and #20170079). The animals were housed in cages of two, with access to food pellets and water ad libitum. The four treatments of the Sprague-Dawley rats consisted of the following: 1. Control (0.1% DMSO in 0.9% saline); 2. CPA; 3. […] Drugs were dissolved at 3 mg/mL in DMSO, and each drug was administered to the animals by daily i.p. injections (3 mg/kg or 5 mg/kg body weight) for 7 consecutive days. […] Then, on days 8 and 9 following the final injections, the animals were subjected to several behavioral tests. The open field is a general locomotor test that detects anxiety and willingness to explore. The test is conducted in a white open cube measuring 50 cm in length, 50 cm in width and 35 cm in depth. The bottom field is gridded in 4x4 squares at 12.5 cm, with a center square in the middle of the field. The animal is placed in the center square and is free to explore the entirety of the field for 15 min. […] This trial is then used to calculate the percentage of time the animals spent in the center zone (red square) and the total fecal boli count. A video camera was used to record the animal movement in this test. The open field test was conducted after a 1 h resting period from the time the Y-maze second trial was completed. Each experiment was repeated at least ten times per treatment and the average of each treatment is presented in the bar graphs as average means ± SEM.

[5] = CPA 3 mg/kg i.p. daily for 7 days, alone

| SMILES | Thio-S levels in CA1 hippocampus ([1]; 3 mg/kg + CPA) | Thio-S levels in SNc ([1]; 3 mg/kg + CPA, compared to control) | Thio-S levels in SNc ([1]; 5 mg/kg + CPA) | Thio-S levels in hippocampus ([1]; 5 mg/kg + CPA) | α-Syn levels in SNc and CA1 hippocampal region ([1]; co-treatment with 3 mg/kg CPA, 7 days) | Binding constant with α-Syn [2] | Number of binding sites with α-Syn [2] | Rescue from α-Syn-induced cell death ([3]; galactose promoter) | Prevention of large α-Syn foci ([3]; one- and two-copied α-Syn-GFP yeast) | Open field, fecal boli count ([4]; 3 and 5 mg/kg i.p. with 3 mg/kg CPA, 7 days) | Open field, exploratory behavior and anxiety ([4]; co-administered with 3 mg/kg CPA, 7 days) | α-Syn levels in SNc and CA1 hippocampal region [1, 5] | Thio-S levels in SNc ([1]; CPA 3 mg/kg i.p. daily for 7 days, alone, compared to control) | Open field, percentage of time spent in the center square [4, 5] |
| --- | --- | --- | --- | --- | --- | --- | --- | --- | --- | --- | --- | --- | --- | --- |
| Cn1c(=O)c2c(nc(CCCCCCNC3CCc4ccccc43)n2C)n(C)c1=O (centres unmarked) [C8–6–I] | abolished the CPA-induced Thio-S levels | significant increase in Thio-S levels | reached control levels | moderate but significant Thio-S level increase | prevented this α-Syn upregulation | 53000 M⁻¹ | one binding site | successful in rescuing the one- and two-copied α-Syn-Green Fluorescent Protein (GFP) yeast strain from α-Syn-induced cell death | effective in preventing large α-Syn foci | significantly decreased the fecal boli count | improved the exploratory behavior and reduced the anxiety caused by CPA | – | – | – |
| OC[C@H]1O[C@@H](n2cnc3c(NC4CCCC4)ncnc32)[C@H](O)[C@@H]1O [CPA, N^6-Cyclopentyladenosine, reference compound] | – | – | – | – | – | – | – | – | – | – | – | markedly increased | significant increase in Thio-S levels | significantly lower percentage of time spent in the center square |
